Data reported in patent US11279714B2, “Anti-infective compounds” (priority 2014, dated 2022).
Converted amounts (≈) assume the structure as drawn.

Assays:
[1] = test system: Raw 264.7 cells infected with H37Rv-GFP; test: microbe, parasite or virus in culture; assay type: cell-based, M. tuberculosis; conditions: Mycobacterium tuberculosis, H37RV, 120 h; read-out: QIM (MIC50)
[2] = test system: M. tuberculosis H37Rv expressing the green fluorescent protein (H37Rv-GFP); test: microbe, parasite or virus in culture; assay type: cell-based; conditions: Mycobacterium tuberculosis, H37RV, 120 h; read-out: QUM (MIC50)

Compound | melting point | MIC50 [1] | MIC50 [2]
Cn1cc(F)c(-c2ccc(NC(=O)c3cc4sc(N5CCOCC5)nc4s3)cc2)n1 [Compound 162] | 280.5 °C | < 1 µM | 1 to 20 µM (≈ 0.444 to 8.87 µg/mL)
COc1ccc(NC(=O)c2cc3scnc3s2)cc1 [Compound 75] | 212 °C | > 20 µM | 1 to 20 µM (≈ 0.29 to 5.81 µg/mL)
O=C(Nc1ccc2ncoc2c1)c1cc2sc(N3CCOCC3)nc2s1 [Compound 101] | 281.8 °C | < 1 µM | 1 to 20 µM (≈ 0.386 to 7.73 µg/mL)
CN(C)C(=O)C1CCN(c2nc3sc(C(=O)Nc4ccc5oc(CCc6ccc(F)cc6)nc5c4)cc3s2)CC1 [Compound 197] | 259 °C | < 1 µM | > 20 µM
O=C(Nc1ccc(N2CCC(c3ccc(Cl)cc3)CC2)cc1)c1cc2sc(N3CCOCC3)nc2s1 [Compound 190] | 281.1 °C | > 20 µM | > 20 µM
COc1ccc(NC(=O)c2cc3ncsc3s2)cc1 [Compound 21] | 236 °C | > 20 µM | > 20 µM
Cc1nnc(-c2ccc(NC(=O)c3cc4sc(N5CCOCC5)nc4s3)cc2Cl)o1 [Compound 148] | 248 °C | > 20 µM | > 20 µM
O=C(Nc1ccc(-c2ccn(C3CCCCO3)n2)cc1)c1cc2sc(N3CCOCC3)nc2s1 (stereo not drawn) [Compound 155] | 293 °C | < 1 µM | > 20 µM
COC(=O)c1ccc(CCNC(=O)c2cc3sc(N4CCCCC4)nc3s2)cc1 [Compound 43] | 212.9 °C | < 1 µM | 1 to 20 µM (≈ 0.43 to 8.59 µg/mL)
COC(=O)C1CCN(C(=O)c2cc3sc(N4CCCCC4)nc3s2)CC1 [Compound 56] | 136 °C | 1 to 20 µM (≈ 0.394 to 7.87 µg/mL) | 1 to 20 µM (≈ 0.394 to 7.87 µg/mL)
Cc1nc2cc(NC(=O)c3cc4sc(N5CCOC(C(=O)N(C)C)C5)nc4s3)ccc2o1 (stereo not drawn) [Compound 169] | 247.5 °C | 1 to 20 µM (≈ 0.472 to 9.43 µg/mL) | 1 to 20 µM (≈ 0.472 to 9.43 µg/mL)
CCc1ccc(NC(=O)c2cc3sc(N4CCCCC4)nc3s2)cc1 [Compound 38] | 198 °C | < 1 µM | 1 to 20 µM (≈ 0.372 to 7.43 µg/mL)
COc1ccc(NC(=O)c2cc3sc(N4CCCCC4)nc3s2)cc1 [Compound 35] | 235 °C | < 1 µM | < 1 µM
COc1ccc(OC(=O)c2ccc(NC(=O)c3cc4sc(N5CCOCC5)nc4s3)cc2)cc1 [Compound 111] | 302.6 °C | < 1 µM | 1 to 20 µM (≈ 0.496 to 9.91 µg/mL)
COc1ccc(NC(=O)c2cc3sc(N4CCCC4)nc3s2)cc1 [Compound 78] | 274.4 °C | < 1 µM | < 1 µM
O=C(Nc1cccc(OCc2ccccc2)c1)c1cc2sc(N3CCOCC3)nc2s1 [Compound 109] | 223.4 °C | > 20 µM | > 20 µM
O=C(Nc1ccc2[nH]ncc2c1)c1cc2sc(N3CCOCC3)nc2s1 [Compound 89] | 329.8 °C | > 20 µM | > 20 µM
CN(C)C(=O)C1CCN(c2nc3sc(C(=O)Nc4ccc5oc(-c6ccc(F)cc6)nc5c4)cc3s2)CC1 [Compound 171] | 323 °C | < 1 µM | > 20 µM
O=C(Nc1ccc(F)cc1)c1cc2sc(N3CCOCC3)nc2s1 [Compound 99] | 240 °C | < 1 µM | 1 to 20 µM (≈ 0.363 to 7.27 µg/mL)
Cc1nc2cc(NC(=O)c3sc4nc(N5CCOCC5)sc4c3C)ccc2o1 [Compound 163] | 226 °C | > 20 µM | > 20 µM
O=C(Nc1ccc(F)c(F)c1)c1cc2sc(N3CCCCC3)nc2s1 [Compound 36] | 218 °C | < 1 µM | 1 to 20 µM (≈ 0.379 to 7.59 µg/mL)

Compound | melting point | MIC50 [1] | MIC50 [2]
Cc1cnc(-c2ccc(NC(=O)c3cc4sc(N5CCOCC5)nc4s3)cc2)o1 [Compound 154] | 287.3 °C | < 1 µM | < 1 µM
COc1ccc(CNC(=O)c2cc3nc(N4CCCCC4)sc3s2)cc1 [Compound 7] | 179 °C | > 20 µM | > 20 µM
COc1cc(NC(=O)c2cc3nc(N4CCCCC4)sc3s2)cc(OC)c1 [Compound 4] | 231.2 °C | > 20 µM | > 20 µM
O=C(c1cc2sc(N3CCOCC3)nc2s1)N1CCC(Cc2ccc(Cl)cc2)CC1 [Compound 173] | 167.2 °C | > 20 µM | > 20 µM
COc1ccc(NC(=O)c2cc3sc(N4CCCC(O)C4)nc3s2)cc1 (stereo not drawn) [Compound 96] | 238 °C | < 1 µM | < 1 µM
COc1c(C(=O)Nc2ccc3oc(C)nc3c2)sc2nc(N3CCOCC3)sc12 [Compound 172] | 269 °C | > 20 µM | > 20 µM
O=C(Nc1cccc(Br)c1)c1cc2sc(N3CCOCC3)nc2s1 [Compound 118] | 199 °C | < 1 µM | > 20 µM
COc1ccc(NC(=O)c2cc3sc(N4CCC(C(=O)N5CCOCC5)CC4)nc3s2)cc1 [Compound 125] | 268 °C | < 1 µM | < 1 µM
O=C(Nc1ccc(-c2cc[nH]n2)cc1)c1cc2sc(N3CCOCC3)nc2s1 [Compound 156] | 319 °C | < 1 µM | 1 to 20 µM (≈ 0.412 to 8.23 µg/mL)
Cc1nc2cc(NC(=O)c3cc4sc(N5CCC(COc6ccc(Cl)cc6)CC5)nc4s3)ccc2o1 [Compound 195] | 256 °C | < 1 µM | > 20 µM
Cc1nc2cc(NC(=O)c3cc4sc(N5CCC(C(=O)NCc6ccccc6)CC5)nc4s3)ccc2o1 [Compound 186] | 264.9 °C | < 1 µM | > 20 µM
COc1ccc(NC(=O)c2cc3sc(N4CCC(F)(F)CC4)nc3s2)cc1 [Compound 72] | 263.5 °C | < 1 µM | 1 to 20 µM (≈ 0.409 to 8.19 µg/mL)
COc1ccc(NC(=O)c2ccc3nc(N4CCCCC4)sc3c2)cc1 [Compound 5] | 214 °C | > 20 µM | > 20 µM
COc1ccc(NC(=O)c2ccc3sc(N4CCCCC4)nc3c2)cc1 [Compound 70] | 222 °C | > 20 µM | > 20 µM
O=C(Nc1ccc(F)nc1)c1cc2sc(N3CCC(CO)CC3)nc2s1 [Compound 143] | 240.8 °C | < 1 µM | < 1 µM
Cc1nc2cc(NC(=O)c3cc4sc(N5CCC(C(=O)N(C)C)C5)nc4s3)ccc2o1 (stereo not drawn) [Compound 192] | 274 °C | 1 to 20 µM (≈ 0.456 to 9.11 µg/mL) | 1 to 20 µM (≈ 0.456 to 9.11 µg/mL)
Cn1cnc2cc(NC(=O)c3cc4sc(N5CCOCC5)nc4s3)ccc21 [Compound 116] | 291 °C | 1 to 20 µM (≈ 0.4 to 7.99 µg/mL) | > 20 µM
O=C(Nc1ccc(Oc2ccccc2)cc1)c1cc2sc(N3CCCCC3)nc2s1 [Compound 61] | 201 °C | < 1 µM | 1 to 20 µM (≈ 0.436 to 8.71 µg/mL)
Cc1nn(C)cc1-c1ccc(NC(=O)c2cc3sc(N4CCOCC4)nc3s2)cc1 [Compound 167] | 245 °C | < 1 µM | 1 to 20 µM (≈ 0.44 to 8.79 µg/mL)
O=C(Nc1ccc(Oc2ccc(Cl)cc2)cc1)c1cc2sc(N3CCOCC3)nc2s1 [Compound 146] | 225 °C | < 1 µM | 1 to 20 µM (≈ 0.472 to 9.44 µg/mL)
